Here are results for 1 molecule from patent publication US20240269128A1, “COMPOUNDS FOR TREATING OR PREVENTING ALZHEIMER'S DISEASE” (THE UNITED STATES OF AMERICA, as represented by the …, priority 2021, published 2024).

For data set [1], the target named is STAT3 (Mus musculus, UniProt P42227). As to the kind of experiment: Western blot of p-STAT3 in BV-2 phenotypic assays (Aβ1-42 clearance, LPS). As to conditions: 25 μM. In kind it is cell-based. The procedure:
(§1) Western blot analyses: Samples for western blot analyses were prepared from 3 assays which provided evidence of HCQ-associated rescue (i.e., Ab1-42 clearance, tau phosphorylation, and LPS-induced neuroinflammation). Samples were prepared identically as described above in section: Effect of HCQ on AD-related phenotypes in cell culture, and scaled up to 24-well format to allow for adequate sample volume. After HCQ treatment, cells were washed once with PBS and harvested in 50 μl 50 mM HEPES+2% SDS lysis buffer. The extracts were then boiled at 95° C. for 5 mins. Analytic methods were identical to those described above in Example 4.
(§2) Statistical analyses: Statistical analysis was performed using STATA 16.1. Group differences were evaluated using two-sample t-tests (parametric) to calculate differences in p-STAT3 levels between HCQ treated and control samples. We additionally used the Wilcoxon rank-sum test (non-parametric) to confirm that results were robust to distributional assumptions. Significant differences were indicated as p<0.05.
(Immunoblotting shows a protein as a band on a membrane.)

For data set [2], the system named is Primary hippocampal neurons. Briefly: Neurite outgrowth and neurogenesis. In kind it is cell-based, mouse. As to conditions: HCQ 25, 2.5 or 0.25 μM. The procedure:
Neurite outgrowth and neurogenesis: Primary hippocampal neurons were prepared from E18.5 timed pregnant C57BL/6JRccHsd mice as previously described. Cells were seeded in poly-D-lysine pre-coated 96-well plates at a density of 2.6×10^4 cells/well in (Neurobasal, 2% B-27, 0.5 mM glutamine, 25 μM glutamate, 1% Penicillin-Streptomycin). Directly on DIV1 HCQ (TargetMol, T0951) at 25 μM, 2.5 μM or 0.25 μM concentrations or vehicle control was applied. On DIV2 10 μM Bromodeoxyuridine (BrdU; B5002 Sigma Aldrich) was added and cells were fixed after additional 24 h. Cells were permeabilized with 0.1% Triton-X and incubated with primary Beta Tubulin Isotype III (T8660, Sigma Aldrich) and BrdU antibodies (MAS250c, AHrlan-Sera Lab) overnight at 4° C. Afterwards cells were washed two times with PBS and incubated with fluorescently labeled secondary antibodies and DAPI for 1.5 hour at RT in the darkness. Cells were rinsed three times with PBS imaged with the Cytation 5 Multimode reader (BioTek) at 10× magnification (6 images per well). BrdU positive cells were counted as marker for neurogenesis and Beta Tubulin Isotype III signal was used for macro-based quantification of neurite outgrowth.

Data set [3] relates to murine microglial cell line BV-2. As to the kind of experiment: LPS-induced neuroinflammation in BV-2 microglial cells (cytokines by MSD V-PLEX, MTT). In kind it is cell-based, mouse.
Protocol: Lipopolysaccharide (LPS)-Induced Neuroinflammation: The murine microglial cell line BV-2 was cultivated in DMEM medium supplemented with 10% FCS, 1% penicillin/streptomycin and 2 mM L-glutamine (culture medium). For LPS stimulation assay, 5000 BV-2 cells per well (uncoated 96 well plates) were plated out and the medium was changed to treatment medium (DMEM, 5% FCS, 2 mM L-glutamine). After changing cells to treatment medium, drug compounds were administered 1 hour before LPS stimulation (Sigma-Aldrich; L6529; 1 mg/ml stock in ddH2O, final concentration in well: 100 ng/ml (dilutions in medium)). Cells treated with vehicle, cells treated with LPS alone, as well as cells treated with LPS plus reference item (dexamethasone 10 μM, Sigma D4902) served as controls. After 24 h of stimulation, cell supernatants were collected for the cytokine measurement (V-PLEX Proinflammatory Panel 1 Mouse Kit, K15048D, Mesoscale) and cells were subjected to MTT assay.
MTT Assay: MTT solution was added to each well in a final concentration of 0.5 mg/mL. After 2 h, the MTT containing medium was aspirated. Cells were lysed in 3% SDS and the formazan crystals were dissolved in isopropanol/HCl. Optical density was measured with a Cytation 5 (Biotek) multimode reader at wavelength 570 nm. Values were calculated as percent of control values (vehicle control or lesion control).
After changing cells to treatment medium, HCQ (0.25 μM, 2.5 μM and 25 μM) was applied 1 hour before LPS stimulation (Sigma-Aldrich; L6529; 1 mg/ml stock in ddH2O, final concentration in well: 100 ng/ml (dilutions in medium)).
For data set [4], the target named is T1, STAT3 (Homo sapiens, UniProt P40763).
T1 construct: endogenous in cells; host or cells: HMC3 (ATCC CRL-3304), 1321N1 (Sigma-Aldrich), SK-N-BE(2)-M17 (ATCC CRL-2267)
T1 sequence (P40763 whole entry): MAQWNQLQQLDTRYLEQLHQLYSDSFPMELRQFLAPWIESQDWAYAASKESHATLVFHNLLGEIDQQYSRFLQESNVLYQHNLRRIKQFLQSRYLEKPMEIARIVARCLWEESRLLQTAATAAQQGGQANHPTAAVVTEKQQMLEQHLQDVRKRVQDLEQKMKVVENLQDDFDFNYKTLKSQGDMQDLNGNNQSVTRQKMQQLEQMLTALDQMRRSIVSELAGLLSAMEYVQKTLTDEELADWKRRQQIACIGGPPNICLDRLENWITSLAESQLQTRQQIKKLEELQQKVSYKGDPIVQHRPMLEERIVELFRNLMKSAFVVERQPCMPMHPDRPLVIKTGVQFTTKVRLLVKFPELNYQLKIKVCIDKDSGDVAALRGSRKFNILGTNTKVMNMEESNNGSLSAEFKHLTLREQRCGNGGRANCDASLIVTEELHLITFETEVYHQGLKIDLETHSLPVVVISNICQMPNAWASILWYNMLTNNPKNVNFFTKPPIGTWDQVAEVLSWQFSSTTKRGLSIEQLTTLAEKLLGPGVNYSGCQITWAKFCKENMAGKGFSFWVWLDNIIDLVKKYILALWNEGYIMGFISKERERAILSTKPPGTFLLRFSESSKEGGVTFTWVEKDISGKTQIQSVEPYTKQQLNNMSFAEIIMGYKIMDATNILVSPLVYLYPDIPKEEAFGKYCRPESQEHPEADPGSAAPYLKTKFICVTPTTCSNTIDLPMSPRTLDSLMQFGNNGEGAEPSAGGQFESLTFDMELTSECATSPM
Briefly: Western blot of p-STAT3 in tau phosphorylation assay. In kind it is cell-based. As to the method: as §1, §2

For data set [5] the following is noted: macaques; cited from earlier work.
In the next data set the test system is BV-2 cells. Briefly: Aβ1-42 clearance Protonex assay. In kind it is cell-based, mouse. To be noted: 25 μM HCQ pretreatment, Protonex Green label. The procedure: Aβ1-42 clearance-Protonex assay: For Abeta (Aβ1-42) clearance Protonex assay, 5000 BV-2 cells per well (uncoated 96 well plates) were plated out. After changing cells to treatment medium, HCQ (25 μM) was applied 1 hour before stimulation with Protonex™ Green 500, SE (21216, AAT Bioquest) labelled Aβ1-42 (Bachem 4061966; final concentration in well: 200 ng/ml (dilutions in medium)). Cells treated with vehicle and cells treated with Aβ1-42 alone served as controls. After 3 h of Aβ1-42 stimulation, cells were imaged on Cytation 5 multimode reader (Biotek) and green fluorescence was measured.

The test system of a further data set is Primary cortical neurons. Briefly: Cell death due to trophic factor withdrawal. Type of data set: cell-based, mouse. As to conditions: HCQ 0.25, 2.5 and 25 μM. The procedure: Cell death due to trophic factor withdrawal: Primary cortical neurons from E18 C57Bl/6 mice were prepared as previously described. On the day of preparation (DIV1), cortical neurons were seeded on poly-D-lysine pre-coated 96-well plates at a density of 3×10^4 cells per well. Every 4-6 days, a half medium exchange using full medium (Neurobasal, 2% B-27, 0.5 mM glutamine, 1% Penicillin-Streptomycin) was carried out. On DIV8, a full medium exchange to B-27 free medium (Neurobasal, 0.5 mM glutamine, 1% Penicillin-Streptomycin) was performed and HCQ (0.25 μM, 2.5 μM and 25 μM) was applied thereafter. […]
YO-PRO™-1 (Invitrogen; Y3603) assay was carried out to detect apoptotic cells in combination with Propidium iodide (PI; P4864 Sigma Aldrich) staining for necrotic cells. […] Plate was measured at the multimode-reader (Cytation 5, BioTek).
MTT solution was added to each well in a final concentration of 0.5 mg/mL. […] Optical density was measured with a Cytation 5 (Biotek) multimode reader at wavelength 570 nm. Values were calculated as percent of control values (vehicle control or lesion control).
The Lactate dehydrogenase (LDH) toxicity assay was carried out on the supernatants collected after treatment using the Cytotoxicity Detection Kit (Roche Diagnostics, Cat. No: 11 644 793 001). […] Absorbance was measured at 492 nm and 620 nm as reference wavelength with a Cytation 5 (Biotek) multimode reader. […]

Sequence of STAT3 (Mus musculus, UniProt P42227) (P42227 whole entry): as the sequence (P40763 whole entry) above, with E760D counted along it

With `CCN(CCO)CCCC(C)Nc1ccnc2cc(Cl)ccc12` (centres unmarked) [HCQ, hydroxychloroquine], the “p-STAT3 (Tyr705)” value on STAT3 [1] (Aβ1-42 clearance assay, relative to VC) is listed as “lowered”. On STAT3 [1] (LPS-induced neuroinflammation assay, vs VC), the “p-STAT3 (Tyr705)” value was “significantly lower”. Moreover, the “neurite outgrowth and neurogenesis” value in data set [2] is “No effects”. Moreover, in data set [3] (2.5 μM, 25 μM, LPS), the IL-1b entry is reported as “dose dependent (2.5 μM<25 μM) reduction”, the IL-6 entry is on record as “dose dependent (2.5 μM<25 μM) reduction”, the IL-10 entry is “dose dependent (2.5 μM<25 μM) reduction” and the IL-12p70 entry was “dose dependent (2.5 μM<25 μM) reduction”. Moreover, the TNF-alpha secretion entry in data set [3] (25 μM, LPS) is on record as “reduction”. The cell viability result in data set [3] (HCQ in LPS assay) is “without any adverse effects on cell viability”. The “p-STAT3 (Tyr705)” value on STAT3 [4] (25 μM and 2.5 μM, relative to VC) is “lowered”. Further, the “p-STAT3 (Ser727)” value on STAT3 [4] (25 μM, 2.5 μM and 0.25 μM) is given as “lowered”. In addition, the Kp brain/plasma in data set [5] is listed as 21.99±0.11. The “microglial uptake of Aβ1-42 into acidic cellular compartments” value in the data set with BV-2 cells is given as “enhances”. Also, the “cell death in response to trophic factor withdrawal” value in the data set on Primary cortical neurons is given as “No effects”.
